Here are results for 14 compounds from patent US7655657B2, “Fused bicycloheterocycle substituted quinuclidine derivatives” (Abbott Laboratories, priority 2003, dated 2010).

One series addresses hERG ion channel (Homo sapiens, UniProt Q12809). The series can be described thus: [3H]-dofetilide binding to membranes from HERG-transfected HEK cells. The following applies: for selectivity ratio at 45 min: human, membrane preparations from HERG-transfected HEK cells, pH 7.4, probe [3H]-dofetilide.
The target in the next series is T1, α7 nAChRs (Rattus norvegicus, UniProt Q05941).
T1 construct: Membrane enriched fractions from rat brain minus cerebellum; tissue ABS Inc., Wilmington, Del; host or cells: rat brain minus cerebellum
T1 sequence (Q05941 23-502): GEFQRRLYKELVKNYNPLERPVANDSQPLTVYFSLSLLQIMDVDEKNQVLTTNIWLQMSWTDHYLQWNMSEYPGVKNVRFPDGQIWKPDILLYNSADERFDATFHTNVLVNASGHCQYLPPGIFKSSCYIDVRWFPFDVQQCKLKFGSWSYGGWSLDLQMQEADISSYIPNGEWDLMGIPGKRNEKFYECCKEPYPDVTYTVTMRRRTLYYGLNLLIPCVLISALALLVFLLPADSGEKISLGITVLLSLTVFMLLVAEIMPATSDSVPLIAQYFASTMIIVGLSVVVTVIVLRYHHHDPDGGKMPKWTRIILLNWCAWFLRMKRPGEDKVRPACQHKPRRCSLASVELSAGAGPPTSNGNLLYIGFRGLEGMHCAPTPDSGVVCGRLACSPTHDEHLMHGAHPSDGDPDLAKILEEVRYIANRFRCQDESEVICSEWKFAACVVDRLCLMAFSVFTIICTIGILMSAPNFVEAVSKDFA
The series can be described thus: [3H]-methyllycaconitine (MLA) binding assay. Here is the method: To determine the effectiveness of representative compounds of this invention as α7 nAChRs, the compounds of the invention were evaluated according to the [3H]-methyllycaconitine (MLA) binding assay and considering the [^3H]-cytisine binding assay, which were performed as described below.
[^3H]-Methyllycaconitine (MLA) Binding
Binding conditions were similar to those for [^3H]-cytisine binding. Membrane enriched fractions from rat brain minus cerebellum (ABS Inc., Wilmington, Del.) were slowly thawed at 4° C., washed and resuspended in 30 volumes of BSS-Tris buffer (120 mM NaCl, 5 mM KCl, 2 mM CaCl2, 2 mM MgCl2, and 50 mM Tris-Cl, pH 7.4, 22° C.). Samples containing 100-200 μg of protein, 5 nM [^3H]-MLA (25 Ci/mmol; Perkin Elmer/NEN Life Science Products, Boston, Mass.) and 0.1% bovine serum albumin (BSA, Millipore, Bedford, Mass.) were incubated in a final volume of 500 μL for 60 minutes at 22° C. Seven log-dilution concentrations of each compound were tested in duplicate. Non-specific binding was determined in the presence of 10 μM MLA. Bound radioactivity was isolated by vacuum filtration onto glass fiber filter plates prewetted with 2% BSA using a 96-well filtration apparatus (Packard Instruments, Meriden, Conn.) and were then rapidly rinsed with 2 mL of ice-cold BSS. Packard MicroScint-20® scintillation cocktail (40 μL) was added to each well and radioactivity was determined using a Packard TopCount® instrument. The IC50 values were determined by nonlinear regression in Microsoft Excel® software. Ki values were calculated from the IC50s using the Cheng-Prusoff equation, where Ki=IC50/1+[Ligand]/KD].

Setting [1] is: rat brain minus cerebellum membranes, 5 nM [3H]-MLA, read-out: α7 binding [3H]MLA Ki.

Molecules are shown by their SMILES. Structures can show the parent of a compound that is named as a salt. Where two headings read alike, the source gives them in different places.

Chain of hERG ion channel (Q12809 whole entry): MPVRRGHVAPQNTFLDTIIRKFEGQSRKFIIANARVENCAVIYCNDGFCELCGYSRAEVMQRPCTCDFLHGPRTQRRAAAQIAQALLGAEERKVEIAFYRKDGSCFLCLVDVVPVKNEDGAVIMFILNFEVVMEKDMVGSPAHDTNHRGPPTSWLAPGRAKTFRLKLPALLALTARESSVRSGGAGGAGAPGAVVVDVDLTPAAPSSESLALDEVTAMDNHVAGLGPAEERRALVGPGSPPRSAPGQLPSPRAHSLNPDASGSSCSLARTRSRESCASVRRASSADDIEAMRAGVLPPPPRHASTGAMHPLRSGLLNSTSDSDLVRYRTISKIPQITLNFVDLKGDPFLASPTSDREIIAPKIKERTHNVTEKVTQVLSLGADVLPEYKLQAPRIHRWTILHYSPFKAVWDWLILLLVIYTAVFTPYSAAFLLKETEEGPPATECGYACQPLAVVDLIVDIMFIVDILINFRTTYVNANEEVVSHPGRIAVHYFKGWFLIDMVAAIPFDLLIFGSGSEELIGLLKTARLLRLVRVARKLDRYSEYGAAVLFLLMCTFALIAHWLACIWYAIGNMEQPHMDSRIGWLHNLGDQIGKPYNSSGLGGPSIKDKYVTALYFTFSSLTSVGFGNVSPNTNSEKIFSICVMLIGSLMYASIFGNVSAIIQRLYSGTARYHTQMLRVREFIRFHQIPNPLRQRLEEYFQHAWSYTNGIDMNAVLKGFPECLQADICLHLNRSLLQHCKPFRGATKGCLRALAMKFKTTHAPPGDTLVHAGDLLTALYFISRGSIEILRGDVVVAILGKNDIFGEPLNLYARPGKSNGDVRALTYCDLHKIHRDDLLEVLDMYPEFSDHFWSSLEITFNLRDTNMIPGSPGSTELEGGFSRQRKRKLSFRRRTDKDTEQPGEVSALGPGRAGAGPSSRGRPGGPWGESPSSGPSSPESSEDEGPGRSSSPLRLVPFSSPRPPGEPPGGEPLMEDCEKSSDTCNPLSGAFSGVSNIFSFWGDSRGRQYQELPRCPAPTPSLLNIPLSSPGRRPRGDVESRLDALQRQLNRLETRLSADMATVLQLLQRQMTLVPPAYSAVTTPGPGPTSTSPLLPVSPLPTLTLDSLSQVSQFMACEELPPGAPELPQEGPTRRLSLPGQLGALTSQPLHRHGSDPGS
Method for hERG ion channel: Membrane aliquots were thawed and homogenized again in a glass Dounce homogenizer (approximately 10 passes). Test compounds were diluted (6 concentrations at half-log intervals) from DMSO stock solutions in assay buffer (135 mM NaCl, 5 mM KCl, 0.8 mM MgCl2, 10 mM HEPES, 10 mM glucose, 1 mM EGTA, 0.01% BSA, pH 7.4), and tested in duplicate at each concentration. The following were added to each 200 μl well of a 96-well polystyrene plate (Packard Optiplate, cat. # 6005290): 20 μl of assay binding buffer (for total bounds), or 1 μM astemizole (for non-specific bounds), or test compound, 50 μl of [^3H]-dofetilide, and 130 μl of membrane homogenate (final protein concentration=30 μg per well). The plates were incubated at room temperature for 45 m, aspirated onto GF/B filter plates, and washed with 2 ml of cold wash buffer. The radioactivity was counted in a Packard Topcount Scintillation Counter after addition of 50 μl of scintillant (Packard Microscint-20, cat. # 6013621). The data were analyzed with a four-parameter logistic equation (PRISM™, Graphpad or Assay Explorer™, MDL). Ki values were derived by means of the Cheng and Prusoff (1973) equation (Ki=IC50/1+[ligand]/Kd) using Kd values for [^3H]-dofetilide obtained from previously performed saturation assays (Diaz et al., 2004). […] Each Ki represents an average of at least two independent determinations.
Thus, binding affinities to the hERG channel were expressed in Ki value, i.e. Ki hERG.

For the compound `c1cc2cc(-c3ccc(O[C@H]4CN5CCC4CC5)nn3)ccc2o1` [B, (R)-3-[6-(Benzofuran-5-yl)-pyridazin-3-yloxy]-1-aza-bicyclo[2.2.2]octane trifluoroacetate, reference compound], at hERG ion channel, the inhibitory constant (Ki) is 4090 nM and the selectivity ratio at 45 min was 29. On α7 nAChRs (setting [1]), the inhibitory constant (Ki) amounted to 142 nM.
The corresponding values for `C1=Cc2cc(-c3ccc(O[C@H]4CN5CCC4CC5)nn3)ccc2C1` [D, (R)-3-[6-(1H-Inden-5-yl)-pyridazin-3-yloxy]-1-aza-bicyclo[2.2.2]octane trifluoroacetate, reference compound] are 2090 nM, 133 and 15.7 nM.
`c1cc2c(cc1-c1ccc(O[C@H]3CN4CCC3CC4)nn1)CCC2` [E, (R)-3-(6-Indan-5-yl-pyridazin-3-yloxy)-1-aza-bicyclo[2.2.2]octane trifluoroacetate, reference compound]: at hERG ion channel, the affinity corresponds to a Ki of 1680 nM and the selectivity ratio at 45 min came to 50. The Ki at α7 nAChRs (setting [1]) worked out at 33.9 nM.
On the same counts, the results for `c1cc2cc(-c3ccc(O[C@H]4CN5CCC4CC5)nn3)ccc2[nH]1` [Example 9, 5-{6-[(3R)-1-Azabicyclo[2.2.2]oct-3-yloxy]pyridazin-3-yl}-1H-indole] are 10900 nM, 1620 and 6.7 nM.
Regarding `Cc1c[nH]c2ccc(-c3ccc(O[C@H]4CN5CCC4CC5)nn3)cc12` [Example 10, 5-{6-[(3R)-1-Azabicyclo[2.2.2]oct-3-yloxy]pyridazin-3-yl}-3-methyl-1H-indole], on hERG ion channel, the inhibitory constant (Ki) came out at 5200 nM and the selectivity ratio at 45 min came to 1680. In addition, the inhibition constant Ki at α7 nAChRs was 3.1 nM.
`c1cc(-c2cnc(O[C@H]3CN4CCC3CC4)nc2)c2cc[nH]c2c1` [Example 12, 4-{2-[(3R)-1-Azabicyclo[2.2.2]oct-3-yloxy]pyrimidin-5-yl}-1H-indole]: on hERG ion channel, the inhibitory constant (Ki) came out at 8830 nM and the selectivity ratio at 45 min is 516. The compound further yielded a Ki at α7 nAChRs of 17.1 nM.
For `Nc1nc2ccc(-c3ccc(O[C@H]4CN5CCC4CC5)cc3)cc2s1` [Example 16, 6-{4-[(3R)-1-Azabicyclo[2.2.2]oct-3-yloxy]phenyl}-1,3-benzothiazol-2-amine], the Ki at hERG ion channel is 1510 nM; at α7 nAChRs, 1.7 nM. Further, the selectivity ratio at 45 min at hERG ion channel was 888.
In the case of `Cc1n[nH]c2ccc(-c3ccc(O[C@H]4CN5CCC4CC5)nn3)cc12` [Example 20, (R)-3-[6-(3-Methyl-1H-indazol-5-yl)-pyridazin-3-yloxy]-1-aza-bicyclo[2.2.2]octane fumarate], the inhibition constant Ki at hERG ion channel amounted to 13000 nM; at α7 nAChRs (setting [1]), 16.3 nM. Also, the selectivity ratio at 45 min at hERG ion channel turned out to be 797.
The corresponding values for `CN(C)Cc1c[nH]c2ccc(-c3ccc(O[C@H]4CN5CCC4CC5)nn3)cc12` [Example 22, (R)-{5-[6-(1-Aza-bicyclo[2.2.2]oct-3-yloxy)-pyridazin-3-yl]-1H-indol-3-ylmethyl}-dimethyl-amine bis(fumarate)] are 37300 nM, 55.8 nM and 669.
The corresponding values for `O=C1Cc2cc(-c3ccc(O[C@H]4C[N+]5([O-])CCC4CC5)nn3)ccc2N1` [Example 27, 5-{6-[(3R)-1-Oxy-1-Aza-bicyclo[2.2.2]oct-3-yloxy]-pyridazin-3-yl}-1,3-dihydro-indol-2-one bis(hydrogen chloride)] are more than 50000 nM, 13.9 nM and more than 4000.
On the same counts, the results for `c1cc2cc(-c3ccc(O[C@@H]4CN5CCC4CC5)nn3)ccc2[nH]1` [Example 30, (S)-3-[6-(1H-Indol-5-yl)-pyridazin-3-yloxy]-1-aza-bicyclo[2.2.2]octane fumarate] are 12700 nM, 4.3 nM and 2960.
Regarding `c1cc2cc(-c3ccc(O[C@H]4CN5CCC4CC5)nc3)ccc2[nH]1` [Example 31, (R)-3-[5-(1H-Indol-5-yl)-pyridin-2-yloxy]-1-aza-bicyclo[2.2.2]octane trifluoroacetate], at hERG ion channel, the Ki turned out to be 2570 nM and the selectivity ratio at 45 min was found to be 339. On α7 nAChRs (setting [1]), the inhibitory constant (Ki) was 7.6 nM.
On the same counts, the results for `c1ccc2cc(-c3ccc(O[C@H]4CN5CCC4CC5)nn3)ccc2c1` [Example A, (R)-3-(6-Naphthalen-2-yl-pyridazin-3-yloxy)-1-aza-bicyclo[2.2.2]octane trifluoroacetate, reference compound] are 838 nM, 11 and 78.9 nM.
On the same counts, the results for `c1ccc2oc(-c3ccc(O[C@H]4CN5CCC4CC5)nn3)cc2c1` [Example C, (R)-3-[6-(Benzofuran-2-yl)-pyridazin-3-yloxy]-1-aza-bicyclo[2.2.2]octane trifluoroacetate, reference compound] are 392 nM, 2 and 162 nM.
